# Values of other authors as cited in PMC10406726, “Development, scrutiny, and modulation of transient reporter gene assays of the xenobiotic metabolism pathway in zebrafish hepatocytes” (Cell Biology and Toxicology, 2021).
# Where two headings read alike, the source gives them in different places.
# How the values were obtained:
# [1] = tested on: ZFL cells; parameters: method as in Eknefelt [2018]; details: TCDD; same cellular context, identical exposure concentrations; ref Eknefelt [2018]; cited from earlier work
# [2] = biological target: GLI3 (DNA binding); parameters: method as in ToxCast database, CompTox dashboard; details: TOX21_SSH_3T3_GLI3_Agonist; ref ToxCast database, CompTox dashboard; cited from earlier work
# [3] = biological target: ESRRA (estrogen-related receptor alpha); parameters: method as in ToxCast database, CompTox dashboard; details: TOX21_ERR_Agonist; ref ToxCast database, CompTox dashboard; cited from earlier work
# [4] = biological target: ESRRA (estrogen-related receptor alpha); parameters: method as in ToxCast database, CompTox dashboard; details: TOX21_PGC_ERR_Agonist; ref ToxCast database, CompTox dashboard; cited from earlier work
# [5] = tested on: AHR (aryl hydrocarbon receptor); parameters: method as in ToxCast database, CompTox dashboard; details: ATG_Ahr_CIS_up; ref ToxCast database, CompTox dashboard; cited from earlier work
# [6] = tested on: PPARG (peroxisome proliferator-activated receptor gamma); parameters: method as in ToxCast database, CompTox dashboard; details: ATG_PPARg_TRANS_up; ref ToxCast database, CompTox dashboard; cited from earlier work
# [7] = tested on: ARE (channel 1); parameters: method as in ToxCast database, CompTox dashboard; details: TOX21_ARE_BLA_Agonist_ch1; ref ToxCast database, CompTox dashboard; cited from earlier work
# [8] = tested on: NFE2L2 (nuclear factor, erythroid 2-like 2); parameters: method as in ToxCast database, CompTox dashboard; details: TOX21_ARE_BLA_agonist_ratio; ref ToxCast database, CompTox dashboard; cited from earlier work
# [9] = biological target: ESR1 (estrogen receptor 1); parameters: method as in ToxCast database, CompTox dashboard; details: ATG_ERE_CIS_up; ref ToxCast database, CompTox dashboard; cited from earlier work
# [10] = tested on: NR1I2 (nuclear receptor subfamily 1, group I, member 2); parameters: method as in ToxCast database, CompTox dashboard; details: ATG_PXRE_CIS_up; ref ToxCast database, CompTox dashboard; cited from earlier work
# [11] = biological target: ESR1 (estrogen receptor 1); parameters: method as in ToxCast database, CompTox dashboard; details: ATG_ERa_TRANS_up; ref ToxCast database, CompTox dashboard; cited from earlier work
# [12] = tested on: AHR (aryl hydrocarbon receptor); parameters: method as in ToxCast database, CompTox dashboard; details: TOX21_AhR_LUC_Agonist; ref ToxCast database, CompTox dashboard; cited from earlier work
# [13] = tested on: HEK293 (cell cycle); parameters: method as in ToxCast database, CompTox dashboard; details: TOX21_RT_HEK293_FLO_40hr_viability; ref ToxCast database, CompTox dashboard; cited from earlier work
# [14] = biological target: ESR1 (estrogen receptor 1); parameters: method as in ToxCast database, CompTox dashboard; details: TOX21_ERa_LUC_VM7_Agonist; ref ToxCast database, CompTox dashboard; cited from earlier work
# [15] = biological target: AR (androgen receptor); parameters: method as in ToxCast database, CompTox dashboard; details: TOX21_AR_LUC_MDAKB2_Agonist; ref ToxCast database, CompTox dashboard; cited from earlier work
# [16] = tested on: NR1I3 (nuclear receptor subfamily 1, group I, member 3); parameters: method as in ToxCast database, CompTox dashboard; details: TOX21_CAR_Agonist; ref ToxCast database, CompTox dashboard; cited from earlier work
# [17] = tested on: NR1I2 (nuclear receptor subfamily 1, group I, member 2); parameters: method as in ToxCast database, CompTox dashboard; details: ATG_PXR_TRANS_up; ref ToxCast database, CompTox dashboard; cited from earlier work
Compound,"cytotoxicity, historical data [1]",AC50 [2],AC50 [3],AC50 [4],AC50 [5],AC50 [6],AC50 [7],AC50 [8],AC50 [9],AC50 [10],AC50 [11],AC50 [12],AC50 [13],AC50 [14],AC50 [15],AC50 [16],AC50 [17]
"Clc1cc2c(cc1Cl)Oc1cc(Cl)c(Cl)cc1O2 [TCDD, 2,3,7,8-tetrachlorodibenzo-p-dioxin]",no TCDD-induced cytotoxicity,,,,,,,,,,,,,,,,
"O=c1cc(-c2ccccc2)oc2ccc3ccccc3c12 [BNF, β-naphthoflavone]",,33.9 nM,67.2 nM,189 nM,[…],750 nM,837 nM,985 nM,1060 nM,2240 nM,2860 nM,[…],5050 nM,5150 nM,5430 nM,6070 nM,6580 nM
